What was measured:
[1] = molecular target: T1, human adenosine A1 receptors expressed in CHO cells (Homo sapiens, UniProt P30542); test: cAMP assay A1 (inhibition of forskolin-induced cAMP production); type: cell-based; conditions: compared to reference full agonist CPA (10 μM) in A1 CHO cells; tested at ±100 × Ki; ±SEM, n = 3; forskolin 10 μM
T1 construct: expressed in transfected cells; host or cells: CHO cells
T1 sequence (P30542 1-326): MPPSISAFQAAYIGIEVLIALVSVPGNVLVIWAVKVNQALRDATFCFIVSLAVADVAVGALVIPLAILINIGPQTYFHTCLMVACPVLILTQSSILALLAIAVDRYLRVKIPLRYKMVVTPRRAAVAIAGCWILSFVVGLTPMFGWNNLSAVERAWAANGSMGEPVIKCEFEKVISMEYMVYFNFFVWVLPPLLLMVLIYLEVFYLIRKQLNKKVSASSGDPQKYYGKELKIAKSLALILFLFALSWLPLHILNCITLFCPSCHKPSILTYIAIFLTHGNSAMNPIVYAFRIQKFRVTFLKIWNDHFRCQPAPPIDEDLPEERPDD
Method: cAMP assay A1 and A3 CHO cells expressing either the human adenosine A1 or A3 receptor were grown overnight as a monolayer in 24 wells tissue culture plates (400 μl/well; 2×10^5cells/well). cAMP generation was performed in Dulbecco's Modified Eagles Medium (DMEM)/N-2-hydroxyethylpiperazin-N′-2-ethansulfonic acid (HEPES) buffer (0.60 g HEPES/50 ml DMEM pH 7.4). […] After incubation for 40 minutes at 37° C., 100 μl forskolin (final concentration 10 μM) was added. After 15 minutes at 37° C., the reaction was terminated by removing the medium and adding 200 μL 0.1 M HCl. Wells were stored at −20° C. until assay
The amounts of cAMP were determined after a protocol with cAMP binding protein^28 with the following minor modifications. As a buffer was used 150 mM K2HPO4/10 mM EDTA/0.2% Bovine Serum Albumine (BSA) at pH 7.5. Samples (20 μl+30 μl 0.1 M HCl) were incubated for at least 2.5 hours at 0° C. before filtration over Whatman GF/B filters. Filters were additionally rinsed with 2×2 ml TrisHCl buffer (pH 7.4, 4° C.). Filters were counted in Packard Emulsifier Safe scintillation fluid (3.5 ml) after 24 hours of extraction. […]

[2] = molecular target: T2, A2A receptor in rat striatum (Rattus norvegicus, UniProt P30543); test: Radioligand binding, displacement of [3H]ZM241385 from rat striatal membranes; conditions: [3H]ZM241385, rat striatal membranes;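 note: displacement assays run in the absence of GTP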
T2 construct: the A2A receptor in rat striatum; from tissue; host or cells: rat striatum
T2 sequence (P30543 whole entry): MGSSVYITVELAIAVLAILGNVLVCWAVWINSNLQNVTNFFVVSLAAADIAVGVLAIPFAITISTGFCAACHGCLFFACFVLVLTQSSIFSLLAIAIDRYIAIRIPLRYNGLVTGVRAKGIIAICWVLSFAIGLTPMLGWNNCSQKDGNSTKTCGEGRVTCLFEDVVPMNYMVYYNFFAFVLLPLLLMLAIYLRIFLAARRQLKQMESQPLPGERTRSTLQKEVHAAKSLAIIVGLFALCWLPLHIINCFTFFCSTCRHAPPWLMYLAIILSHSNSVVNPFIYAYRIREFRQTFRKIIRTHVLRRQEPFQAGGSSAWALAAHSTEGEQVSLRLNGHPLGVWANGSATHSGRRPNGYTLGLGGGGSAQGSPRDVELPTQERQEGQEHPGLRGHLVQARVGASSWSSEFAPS
Method: Incubations were carried out for 1 hr at 37° C. and were terminated by rapid filtration over Whatman GF/B filters, using a Brandell cell harvester (Brandell, Gaithersburg, Md.). Tubes were washed three times with 3 ml of buffer. Radioactivity was determined in a Beckman 5500B γ-counter. Nonspecific binding was determined in the presence of 10^−5 M R-PIA.
All compounds were tested in radioligand binding assays to determine their affinities for the adenosine A1 receptor in rat brain cortex, the A2A receptor in rat striatum and the human A3 receptor as expressed in HEK 293 cells (Table 2). […] AB-MECA, an A3 receptor agonist, was also used. Displacement experiments were performed in the absence of GTP.

COC[C@H]1O[C@@H](n2cnc3c(N)ncnc32)[C@H](O)[C@@H]1O [Compound 66, 5′-O-methyladenosine]
% inhib. A1 of forskolin-induced cAMP [1]: 75 ± 3% | melting point: 112 to 114 °C | Ki [2]: 261 ± 65 nM

COC[C@H]1O[C@@H](n2cnc3c(N)nc(Cl)nc32)[C@H](O)[C@@H]1O [Compound 69, 2-Chloro-5′-O-methyladenosine]
% inhib. A1 of forskolin-induced cAMP [1]: 78 ± 4% | melting point: 200 to 202 °C | Ki [2]: 284 ± 55 nM

CCOC[C@H]1O[C@@H](n2cnc3c(N)ncnc32)[C@H](O)[C@@H]1O [Compound 72, 5′-O-Ethyladenosine]
% inhib. A1 of forskolin-induced cAMP [1]: 57 ± 11% | melting point: 110 to 112 °C | Ki [2]: 415 ± 69 nM

CCOC[C@H]1O[C@@H](n2cnc3c(N)nc(Cl)nc32)[C@H](O)[C@@H]1O [Compound 75, 2-Chloro-5′-O-ethyladenosine]
% inhib. A1 of forskolin-induced cAMP [1]: 67 ± 7% | melting point: 117 to 119 °C | Ki [2]: 659 ± 168 nM

Nc1nc(Cl)nc2c1ncn2[C@@H]1O[C@H](COC2CC2)[C@@H](O)[C@H]1O [Compound 81, 2-Chloro-5′-O-cyclopropyladenosine]
% inhib. A1 of forskolin-induced cAMP [1]: 49 ± 9% | melting point: 122 to 124 °C | Ki [2]: 885 ± 89 nM
